This note sets out measurements from patent US8084479B2, “Thiazole compounds and methods of use” (Amgen Inc., priority 2006, dated 2011).

Where only a bound is given, the exact number is not on record here.

The target in this experiment is PKBα (Homo sapiens, UniProt P31749). The experiment is described as follows: PKB kinase assay (P33-labeled ATP, peptide substrate, filter plate). Type of experiment: biochemical. The following applies: PKBα enzyme (full length or kinase domain with pleckstrin domain deleted). From the text:
The kinase assay for evaluating PKB activity comprises active PKB enzymes, a PKB specific substrate, and P^33-labeled ATP. […] The phosphorylated substrate was captured by a phosphocellulose membrane filter plate (MLLIPORE) and measured by a Wallac Microbeta liquid scintillation counter (Perkin Elmer).

Chain of PKBα (P31749 118-480 limits assumed): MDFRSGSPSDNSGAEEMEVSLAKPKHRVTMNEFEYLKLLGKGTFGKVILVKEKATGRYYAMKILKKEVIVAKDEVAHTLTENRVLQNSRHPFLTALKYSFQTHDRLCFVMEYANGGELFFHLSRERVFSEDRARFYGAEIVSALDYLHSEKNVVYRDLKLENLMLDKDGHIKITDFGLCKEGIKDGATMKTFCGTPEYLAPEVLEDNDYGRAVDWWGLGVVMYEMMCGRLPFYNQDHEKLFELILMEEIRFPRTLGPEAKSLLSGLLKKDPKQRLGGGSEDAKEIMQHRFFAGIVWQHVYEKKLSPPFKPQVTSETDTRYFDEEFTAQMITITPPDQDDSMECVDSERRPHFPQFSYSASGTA

For `N[C@H](CNc1ncc(-c2ccc3c(c2)/C(=C/c2ccco2)C(=O)N3)s1)Cc1c[nH]c2ccccc12` (stereo in doubt) [Example 72, (E)- and (Z)-5-(2-((S)-2-amino-3-(1H-indol-3-yl)propylamino)thiazol-5-yl)-3-(furan-2-ylmethylene)indolin-2-one ditrifluoroacetates], the concentration for half-maximal inhibition (IC50) (as a rule, the concentration that gives 50% inhibition) lay within 50 to 1000 nM.
The figure for `N[C@H](CNc1ncc(-c2ccc3c(c2)/C(=C\c2cnc[nH]2)C(=O)N3)s1)Cc1c[nH]c2ccccc12` (stereo in doubt) [Example 73, (E)-3-((1H-imidazol-5-yl)methylene)-6-(2-((S)-2-amino-3-(1H-indol-3-yl)propylamino)thiazol-5-yl)indolin-2-one ditrifluoroacetates] is 50 to 1000 nM; for `Cc1n[nH]c2ccc(-c3cnc(NC[C@@H](N)Cc4ccccc4)s3)cc12` [Example 1, N—((S)-2-amino-3-phenylpropyl)-5-(3-methyl-1H-indazol-5-yl)thiazol-2-amine] it is 50 to 1000 nM; for `Cc1n[nH]c2ccc(-c3cnc(NC[C@@H](N)Cc4c[nH]c5ccccc45)s3)cc12` [Example 2, N—((S)-2-amino-3-(1H-indol-3-yl)propyl)-5-(3-methyl-1H-indazol-5-yl)thiazol-2-amine] it is 50 to 1000 nM.
The figure for `Cc1n[nH]c2ccc(-c3cnc(NC[C@@H](N)Cc4ccc(Cl)cc4)s3)cc12` [Example 3, N—((S)-2-amino-3-(4-chlorophenyl)propyl)-5-(3-methyl-1H-indazol-5-yl)thiazol-2-amine] is 50 to 1000 nM; for `N[C@H](CNc1ncc(-c2ccc3[nH]ncc3c2)s1)Cc1ccc(Cl)cc1` [Example 4, N—((S)-2-amino-3-(4-chlorophenyl)propyl)-5-(1H-indazol-5-yl)thiazol-2-amine] it is below 50 nM.
The figure for `N[C@H](CNc1ncc(-c2ccc3cnccc3c2)s1)Cc1c[nH]c2ccccc12` [Example 5, N—((S)-2-amino-3-(1H-indol-3-yl)propyl)-5-(isoquinolin-6-yl)thiazol-2-amine] is 50 to 1000 nM; for `N[C@H](CNc1ncc(-c2ccc3cnccc3c2)s1)Cc1ccc(C(F)(F)F)cc1` [Example 6, N—((S)-2-amino-3-(4-(trifluoromethyl)phenyl)propyl)-5-(isoquinolin-6-yl)thiazol-2-amine] it is below 50 nM.
Compound `Cc1nc(NC[C@@H](N)Cc2ccccc2)sc1-c1ccc2[nH]nc(C)c2c1` [Example 7, N—((S)-2-amino-3-phenylpropyl)-4-methyl-5-(3-methyl-1H-indazol-5-yl)thiazol-2-amine] gave an IC50 of 1000 to 10000 nM.
Then `N[C@H](CNc1nc(-c2ccco2)c(-c2ccc3cnccc3c2)s1)Cc1ccc(C(F)(F)F)cc1` [Example 8, N—((S)-2-amino-3-(4-(trifluoromethyl)phenyl)propyl)-4-(furan-2-yl)-5-(isoquinolin-6-yl)thiazol-2-amine], with 50 to 1000 nM.
With `N[C@H](CNc1nc(-c2ccccc2)c(-c2ccc3cnccc3c2)s1)Cc1ccc(C(F)(F)F)cc1` [Example 9, N—((S)-2-amino-3-(4-(trifluoromethyl)phenyl)propyl)-5-(isoquinolin-6-yl)-4-phenylthiazol-2-amine], the IC50 is 50 to 1000 nM.
In the case of `N[C@H](CNc1nc(CO)c(-c2ccc3cnccc3c2)s1)Cc1ccc(C(F)(F)F)cc1` [Example 10, (2-((S)-2-amino-3-(4-(trifluoromethyl)phenyl)propylamino)-5-(isoquinolin-6-yl)thiazol-4-yl)methanol], the IC50 was below 50 nM.
Then `Cc1n[nH]c2ccc(-c3sc(NC[C@@H](N)Cc4ccc(C(F)(F)F)cc4)nc3CO)cc12` [Example 11, (2-((S)-2-amino-3-(4-(trifluoromethyl)phenyl)propylamino)-5-(3-methyl-1H-indazol-5-yl)thiazol-4-yl)methanol], with below 50 nM.
The figure for `N[C@H](CNc1nc(CO)c(-c2ccc3[nH]ncc3c2)s1)Cc1ccc(C(F)(F)F)cc1` [Example 12, (2-((S)-2-amino-3-(4-(trifluoromethyl)phenyl)propylamino)-5-(1H-indazol-5-yl)thiazol-4-yl)methanol] is below 50 nM.
Then `COCc1nc(NC[C@@H](N)Cc2ccc(C(F)(F)F)cc2)sc1-c1ccc2cnccc2c1` [Example 13, N—((S)-2-amino-3-(4-(trifluoromethyl)phenyl)propyl)-5-(isoquinolin-6-yl)-4-(methoxymethyl)thiazol-2-amine], with below 50 nM.
As to `COCc1nc(NC[C@@H](N)Cc2ccc(C(F)(F)F)cc2)sc1-c1ccc2[nH]ncc2c1` [Example 14, N—((S)-2-amino-3-(4-(trifluoromethyl)phenyl)propyl)-5-(1H-indazol-5-yl)-4-(methoxymethyl)thiazol-2-amine], the half-maximal inhibitory concentration (IC50) was below 50 nM.
The figure for `COCc1nc(NC[C@@H](N)Cc2ccc(C(F)(F)F)cc2)sc1-c1ccc2[nH]nc(C)c2c1` [Example 15, N—((S)-2-amino-3-(4-(trifluoromethyl)phenyl)propyl)-4-(methoxymethyl)-5-(3-methyl-1H-indazol-5-yl)thiazol-2-amine] is 50 to 1000 nM; for `COC(C)c1nc(NC[C@@H](N)Cc2ccc(C(F)(F)F)cc2)sc1-c1ccc2cnccc2c1` (stereo partly drawn) [Example 16, N—((S)-2-amino-3-(4-(trifluoromethyl)phenyl)propyl)-5-(isoquinolin-6-yl)-4-(1-methoxyethyl)thiazol-2-amine] it is 50 to 1000 nM.
The figure for `COCc1nc(N(C[C@@H](N)Cc2cccc(Cl)c2)C(C)=O)sc1-c1nc2ccncc2s1` [Example 17, N—((S)-2-amino-3-(3-chlorophenyl)propyl)-N-(4-(methoxymethyl)-5-(thiazolo[5,4-c]pyridin-2-yl)thiazol-2-yl)acetamide] is 1000 to 10000 nM; for `COCc1nc(NC[C@@H](N)Cc2cccc(Cl)c2)sc1-c1nc2ccncc2s1` [Example 18, N—((S)-2-amino-3-(3-chlorophenyl)propyl)-4-(methoxymethyl)-5-(thiazolo[5,4-c]pyridin-2-yl)thiazol-2-amine] it is 1000 to 10000 nM; for `COCc1nc(NC[C@@H](N)Cc2ccc(Cl)cc2)sc1-c1nc2ccncc2s1` [Example 19, N—((S)-2-amino-3-(4-chlorophenyl)propyl)-4-(methoxymethyl)-5-(thiazolo[5,4-c]pyridin-2-yl)thiazol-2-amine] it is below 50 nM.
Then `N[C@H](CNc1nc(COCC(F)(F)F)c(-c2nc3ccncc3s2)s1)Cc1cccc(Cl)c1` [Example 20, N—((S)-2-amino-3-(3-chlorophenyl)propyl)-5-(thiazolo[5,4-c]pyridin-2-yl)-4-((2,2,2-trifluoroethoxy)methyl)thiazol-2-amine], with 1000 to 10000 nM; and `COCc1nc(NC[C@@H](N)Cc2ccc(C(F)(F)F)cc2)sc1-c1nc2ccncc2s1` [Example 22, N—((S)-2-amino-3-(4-(trifluoromethyl)phenyl)propyl)-4-(methoxymethyl)-5-(thiazolo[5,4-c]pyridin-2-yl)thiazol-2-amine], with below 50 nM; and `CCc1nc(NC[C@@H](N)Cc2ccc(C(F)(F)F)cc2)sc1-c1nc2ccncc2s1` [Example 23, N—((S)-2-amino-3-(4-(trifluoromethyl)phenyl)propyl)-4-ethyl-5-(thiazolo[5,4-c]pyridin-2-yl)thiazol-2-amine], with 50 to 1000 nM.
`Cc1nc(NC[C@@H](N)Cc2ccc(C(F)(F)F)cc2)sc1-c1nc2ccncc2s1` [Example 24, N—((S)-2-amino-3-(4-(trifluoromethyl)phenyl)propyl)-4-methyl-5-(thiazolo[5,4-c]pyridin-2-yl)thiazol-2-amine]: the IC50 was 50 to 1000 nM.
Consider `COCc1nc(N(C[C@@H](N)Cc2ccc(Cl)cc2)C(C)=O)sc1-c1nc2ccncc2s1` [Example 25, N—((S)-2-amino-3-(4-chlorophenyl)propyl)-N-(4-(methoxymethyl)-5-(thiazolo[5,4-c]pyridin-2-yl)thiazol-2-yl)acetamide], for which the half-inhibitory concentration (IC50) is 50 to 1000 nM.
For `COCc1nc(N(C[C@@H](N)Cc2ccc(C(F)(F)F)cc2)C(C)=O)sc1-c1nc2ccncc2s1` [Example 26, N—((S)-2-amino-3-(4-(trifluoromethyl)phenyl)propyl)-N-(4-(methoxymethyl)-5-(thiazolo[5,4-c]pyridin-2-yl)thiazol-2-yl)acetamide], the IC50 was 1000 to 10000 nM.
The figure for `COCc1nc(NC[C@@H](N)Cc2c[nH]c3ccccc23)sc1-c1nc2ccncc2s1` [Example 27, N—((S)-2-amino-3-(1H-indol-3-yl)propyl)-4-(methoxymethyl)-5-(thiazolo[5,4-c]pyridin-2-yl)thiazol-2-amine] is 50 to 1000 nM; for `c1ccc(CNc2ncc(-c3nc4ccncc4s3)s2)cc1` [Example 28, N-benzyl-5-(thiazolo[5,4-c]pyridin-2-yl)thiazol-2-amine] it is 1000 to 10000 nM; for `N[C@@H](Cc1cccc(C(F)(F)F)c1)CN(Cc1ccccc1)c1ncc(-c2nc3ccncc3s2)s1` [Example 29, N—((S)-2-amino-3-(3-(trifluoromethyl)phenyl)propyl)-N-benzyl-5-(thiazolo[5,4-c]pyridin-2-yl)thiazol-2-amine] it is 1000 to 10000 nM.
Then `N[C@@H](Cc1ccc(C(F)(F)F)cc1)CN(Cc1ccccc1)c1ncc(-c2nc3ccncc3s2)s1` [Example 30, N—((S)-2-amino-3-(4-(trifluoromethyl)phenyl)propyl)-N-benzyl-5-(thiazolo[5,4-c]pyridin-2-yl)thiazol-2-amine], with 50 to 1000 nM; and `N[C@H](CNc1ncc(-c2nc3ccncc3s2)s1)Cc1cccc(C(F)(F)F)c1` [Example 31, N—((S)-2-amino-3-(3-(trifluoromethyl)phenyl)propyl)-5-(thiazolo[5,4-c]pyridin-2-yl)thiazol-2-amine], with 1000 to 10000 nM; and `N[C@H](CNc1ncc(-c2nc3ccncc3s2)s1)Cc1ccc(C(F)(F)F)cc1` [Example 32, N—((S)-2-amino-3-(4-(trifluoromethyl)phenyl)propyl)-5-(thiazolo[5,4-c]pyridin-2-yl)thiazol-2-amine], with below 50 nM.
